Measurements published in patent US11161819B2, “Substituted tetrahydroisoquinoline compounds useful as GPR120 agonists” (Merck Sharp & Dohme Corp., priority 2016, dated 2021).

Biological target: T1, human GPR120 (Homo sapiens, UniProt Q5NUL3)
T1 construct: expressed in transfected cells
T1 sequence (Q5NUL3 1-361): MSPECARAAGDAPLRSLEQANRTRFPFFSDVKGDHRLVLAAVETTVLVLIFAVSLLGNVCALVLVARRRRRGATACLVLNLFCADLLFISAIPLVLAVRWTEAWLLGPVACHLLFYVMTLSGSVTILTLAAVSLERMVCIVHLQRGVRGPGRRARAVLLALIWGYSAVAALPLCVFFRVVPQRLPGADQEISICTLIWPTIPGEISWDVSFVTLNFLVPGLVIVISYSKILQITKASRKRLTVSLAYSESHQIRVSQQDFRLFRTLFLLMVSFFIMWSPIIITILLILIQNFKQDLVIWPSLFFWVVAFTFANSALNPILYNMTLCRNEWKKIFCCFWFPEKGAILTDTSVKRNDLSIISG
Assay: Human GPR120 IP1 Assay (inositol phosphate turnover, CisBio IP-One kit)
Assay type: cell-based
Details: IP1 accumulation in CHO-K1 cells stably expressing the short form of human GPR120; 60 min compound incubation; 4-parameter fit; read-out: hGPR120 EC50
Text: Human GPR120 IP1 Assay Principle
The binding of small molecule agonists to the G-protein-coupled receptor GPR120 activates phospholipase C, and leads to the generation of inositol 1,4,5-trisphosphate (InsP3 or IP3). IP3 is subsequently de-phosphorylated to IP1, which accumulates in cells and is stable in the presence of lithium chloride.
In the present method, agonist-induced activation of the human GPR120 receptor was monitored by measuring the accumulation of IP1 in CHO-K1 cells that were stably expressing the short form of human GPR120 (Accession #NM_001195755). Following agonist addition, GPR120 activation and subsequent accumulation of IP1 was measured using a homogeneous Time Resolved Fluorescence-based ELISA commercially available from CisBio (IP-one ELISA Kit). The IP-One ELISA was a competitive immunoassay which uses IP1 labeled with […] and a terbium cryptate-labeled anti-IP1 monoclonal antibody. […] The signal loss was then back calculated to IP1 concentration using an IP1 standard curve. Determination of IP1 concentration was a direct measure of GPR120 activation and was used to determine compound potency (EC50).
Generation of GPR120-Expressing Cells:
Human GPR120 stable cell-lines were generated in CHO cells. The expression plasmids were transfected using lipofectamine (Life Technologies) following manufacturer's instructions. Stable cell-lines were generated following drug selection and single cell cloning.
Inositol Phosphate Turnover (IP1) Assay:
The assay was performed in 384-well format. CHO cells stably expressing human GPR120 were plated at […] per well in growth medium (DMEM/F12, 10% fetal calf serum). Cell plates were then incubated 16 hours at 37 degrees in a 5% CO2 incubator. Measurement of Inositol Phosphate Turnover (IP1) was performed using the CisBio IP-One kit (Part number 62IPAPEB). After the 16 hour incubation, the growth media was removed by centrifugation using the BlueWasher (AusWasher GUI Ver. v1.0.1.8) Protocol #21-“Light Dry” and 10 ul of stimulation buffer (prepared as described in the kit) was added to each well. In a separate plate, compounds were diluted in DMSO (200-fold over the final concentration in the assay well) and 50 nl was acoustically transferred to the appropriate well in the assay cell plate. The plates were then incubated for 60 minutes at 37 degrees in a 5% CO2 incubator. 10 ul of detection buffer (also prepared as described in the IP-One kit) was added to each well and the plates were incubated at room temperature for 60 minutes in the dark. The plates were then read in a Perkin Elmer EnVision or equivalent reader able to measure FRET. Fluorescent ratio of emission at 665 and 620 nm was then converted to the IP1 concentration by back calculating from an IP1 standard curve prepared at the time of the assay. The data was normalized to % activity using a reference compound, and the EC50 values were determined using a standard 4-parameter fit.

Row | Structure (SMILES) | EC50 [nM]
1 | O=C(O)CCc1cc(F)c2c(c1)CCN(c1cc(OC(F)(F)F)ccc1F)C2 [Example 51, 3-{8-fluoro-2-[2-fluoro-5-(trifluoromethoxy)phenyl]-1,2,3,4-tetrahydroisoquinolin-6-yl}-propanoic acid] | 317
2 | O=C(O)CCc1cc2c(cc1F)CN(c1cc(OC3CCC3)cc(F)c1F)CC2 [Example 131, 3-(2-(5-cyclobutoxy-2,3-difluorophenyl)-7-fluoro-1,2,3,4-tetrahydro-isoquinolin-6-yl)propanoic acid] | 174
3 | O=C(O)CCc1ccc2c(c1)CCN(c1cc(OC3CCC3)cc(Cl)c1F)C2 [Example 54, 3-{2-[3-chloro-5-(cyclobutyloxy)-2-fluorophenyl]-1,2,3,4-tetrahydro-isoquinolin-6-yl}propanoic acid] | 1680
4 | Cc1ccc(-n2nc(C)c(C#N)c2N2CCc3cc(CCCCC(=O)O)ccc3C2)cc1 [Example 127, 5-(2-(4-cyano-3-methyl-1-(p-tolyl)-1H-pyrazol-5-yl)-1,2,3,4-tetrahydro-isoquinolin-6-yl)pentanoic acid] | 35
5 | O=C(O)CCc1ccc2c(c1F)CCN(c1cc(OC3CCC3)cc(F)c1F)C2 [Example 64, 3-{2-[5-(cyclobutyloxy)-2,3-difluorophenyl]-5-fluoro-1,2,3,4-tetra-hydroisoquinolin-6-yl}propanoic acid] | 15
6 | Cc1nc(OC2CCC2)cc(N2CCc3c(ccc(CCC(=O)O)c3F)C2)c1C#N [Example 149, 3-(2-(3-cyano-6-cyclobutoxy-2-methylpyridin-4-yl)-5-fluoro-1,2,3,4-tetrahydroisoquinolin-6-yl)propanoic acid] | 33
7 | O=C(O)CCc1ccc2c(c1F)CCN(c1cccc(C3CC3)n1)C2 [Example 154, 3-[2-(6-cyclopropylpyridin-2-yl)-5-fluoro-1,2,3,4-tetrahydroiso-quinolin-6-yl]propanoic acid] | 167
8 | N#Cc1cc(OC(F)(F)F)cc(N2CCc3c(ccc([C@H]4C[C@@H]4C(=O)O)c3F)C2)c1F [Example 107, (1S,2S)-2-(2-(3-cyano-2-fluoro-5-(trifluoromethoxy)phenyl)-5-fluoro-1,2,3,4-tetrahydroisoquinolin-6-yl)cyclopropanecarboxylic acid] | 122
9 | CC(CC(=O)O)c1ccc2c(c1)CCN(c1cc(OC(F)(F)F)ccc1F)C2 (single isomer, unassigned) [Example 8, 3-(2-(2-fluoro-5-(trifluoromethoxy)phenyl)-1,2,3,4-tetrahydro-isoquinolin-6-yl)-butanoic acid] | 414
10 | O=C(O)[C@H]1C[C@@H]1c1ccc2c(c1F)CCN(c1cc(OC(F)(F)F)ccc1F)C2 [Example 118, (1S,2S)-2-{5-fluoro-2-[2-fluoro-5-(trifluoromethoxy)phenyl]-1,2,3,4-tetrahydroisoquinolin-6-yl} cyclopropane-carboxylic acid] | 215
11 | N#Cc1cc(OC(F)(F)F)cc(N2CCc3c(ccc([C@@H]4C[C@H]4C(=O)O)c3F)C2)c1F [Example 109, (1R,2R)-2-{2-[3-cyano-2-fluoro-5-(trifluoromethoxy)phenyl]-5-fluoro-1,2,3,4-tetrahydroisoquinolin-6-yl}cyclopropane-carboxylic acid] | 22

The next lines start with the values.

Row | EC50 [nM] | Structure (SMILES)
12 | 40 | O=C(O)CCc1ccc2c(c1F)CCN(c1cc(C(F)(F)C3CCC3)ccc1F)C2 [Example 56, 3-(2-(5-(cyclobutyldifluoromethyl)-2-fluorophenyl)-5-fluoro-1,2,3,4-tetrahydro-isoquinolin-6-yl)propanoic acid]
13 | 23 | COc1cc(Oc2ncc(C)s2)cc(N2CCc3cc(CCC(=O)O)ccc3C2)c1F [Example 17, 3-(2-{2-fluoro-3-methoxy-5-[(5-methyl-1,3-thiazol-2-yl)oxy]phenyl}-1,2,3,4-tetrahydroiso-quinolin-6-yl)propanoic acid]
14 | 482 | Cc1nn(-c2ccc(F)cc2)c(N2CCc3cc(C4CC4C(=O)O)ccc3C2)c1F (centres unmarked) [Example 92, 2-{2-[4-fluoro-1-(4-fluorophenyl)-3-methyl-1H-pyrazol-5-yl]-1,2,3,4-tetrahydroisoquinolin-6-yl} cyclo-propanecarboxylic acid]
15 | 4300 | Cc1ccc(-n2nc(C)c(C#N)c2N2CCc3cc(OCCCO)ccc3C2)cc1 [Example 144, 5-[6-(3-hydroxypropoxy)-3,4-dihydroisoquinolin-2(1H)-yl]-3-methyl-1-(4-methylphenyl)-1H-pyrazole-4-carbonitrile]
16 | 350 | O=C(O)[C@H]1C[C@@H]1c1ccc2c(c1)CCN(Cc1cc(C(F)(F)F)cc(Cl)c1F)C2 [Example 93, (1S,2S)-2-{2-[3-chloro-2-fluoro-5-(trifluoromethyl)benzyl]-1,2,3,4-tetrahydroisoquinolin-6-yl} cyclopropanecarboxylic acid]
17 | 233 | CC1c2ccc(CCC(=O)O)cc2CCN1c1cc(OC2CCC2)cc(F)c1F (centres unmarked) [Example 32, 3-{2-[5-(cyclobutyloxy)-2,3-difluorophenyl]-1-methyl-1,2,3,4-tetrahydroisoquinolin-6-yl}-propanoic acid]
18 | 60 | O=C(O)CCc1ccc2c(c1F)CCN(c1cc(CC3CCC3)ccc1F)C2 [Example 23, 3-{2-[5-(cyclobutylmethyl)-2-fluorophenyl]-5-fluoro-1,2,3,4-tetrahydroisoquinolin-6-yl}propanoic acid]
19 | 3000 | CO[C@H]1C[C@H](Oc2cc(F)c(C#N)c(N3CCc4cc([C@@H]5C[C@H]5C(=O)O)ccc4C3)c2)C1 [Example 103, (1R,2R)-2-(2-{2-cyano-3-fluoro-5-[(trans-3-methoxycyclobutyl)oxy]phenyl}-1,2,3,4-tetrahydroiso-quinolin-6-yl)cyclopropane-carboxylic acid]
20 | 348 | CC1c2ccc(CCC(=O)O)cc2CCN1c1cc(OC2CCC2)ccc1F (centres unmarked) [Example 36, 3-{2-[5-(cyclobutyloxy)-2-fluorophenyl]-1-methyl-1,2,3,4-tetrahydroisoquinolin-6-yl}propanoic acid]
21 | 87 | N#Cc1c(F)cc(OC2CCC2)cc1N1CCc2c(ccc(CCC(=O)O)c2Cl)C1 [Example 153, 3-{5-chloro-2-[2-cyano-5-(cyclobutyloxy)-3-fluorophenyl]-1,2,3,4-tetrahydroisoquinolin-6-yl}-propanoic acid]
22 | 100 | C[C@H]1C[C@H](Oc2cc(F)c(F)c(N3CCc4cc([C@H]5C[C@@H]5C(=O)O)ccc4C3)c2)C1 [Example 98, (1S,2S)-2-(2-{2,3-difluoro-5-[(trans-3-methylcyclobutyl)oxy]phenyl}-1,2,3,4-tetrahydroiso-quinolin-6-yl)-cyclopropane-carboxylic acid]
23 | 61 | O=C(O)[C@@H]1C[C@H]1c1ccc2c(c1)CCN(c1cc(OC3CCC3)cc(Cl)c1F)C2 [Example 114, (1R,2R)-2-{2-[3-chloro-5-(cyclobutyloxy)-2-fluorophenyl]-1,2,3,4-tetrahydroisoquinolin-6-yl} cyclopropanecarboxylic acid]
24 | 569 | O=C(O)CCc1ccc2c(c1)CCN(c1cncc(OC3CCC3)n1)C2 [Example 41, 3-{2-[6-(cyclobutyloxy)pyrazin-2-yl]-1,2,3,4-tetrahydroiso-quinolin-6-yl}propanoic acid]
25 | 17 | N#Cc1c(F)cc(OC2CCC2)cc1N1CCc2c(ccc(CCC(=O)O)c2F)C1 [Example 155, 3-{2-[2-cyano-5-(cyclobutyloxy)-3-fluorophenyl]-5-fluoro-1,2,3,4-tetrahydroisoquinolin-6-yl}-propanoic acid]
26 | 834 | Cc1ccc(-n2nc(C)c(F)c2N2CCc3cc(C4CC4C(=O)O)ccc3C2)cc1 (centres unmarked) [Example 96, 2-{2-[4-fluoro-3-methyl-1-(4-methylphenyl)-1H-pyrazol-5-yl]-1,2,3,4-tetrahydroisoquinolin-6-yl}cyclopropanecarboxylic acid]
